According to PubChem BioAssay AID248 (DTP/NCI, 2004):
Where “and” joins values, the source holds several entries; their conditions need not be identical. Equal values may be shown once. Inconclusive results and toxic doses are left out. Cut-off read from the data, not from the text of the source: active = T/C of 150% or more; inactive = T/C below 125%.

Tested on: L1210 leukemia ip in BDF1 mice, survival T/C
Test: NCI In Vivo Anticancer Drug Screen. Data for tumor model L1210 Leukemia (intraperitoneal) in B6D2F1 (BDF1) mice
Conditions: endpoint: mean survival time, higher = longer survival
Summary of the method: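 Value reflects the ratio of survival in compound-treated mice to survival in vehicle-treated controls, with both groups carrying the same transplanted tumor.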

[1] = dose: 100.0 mg/kg/injection, schedule: Q04DX003 (ip), vehicle: saline with Tween-80
[2] = dose: 200.0 mg/kg/injection, schedule: Q04DX003 (ip), vehicle: saline with Tween-80
[3] = dose: 50.0 mg/kg/injection, schedule: Q01DX009 (ip), vehicle: saline
[4] = dose: 100.0 mg/kg/injection, schedule: Q01DX009 (ip), vehicle: saline
[5] = dose: 100.0 mg/kg/injection, schedule: Q04DX003 (ip), vehicle: saline
[6] = dose: 100.0 mg/kg/injection, schedule: Q01DX009 (ip), vehicle: Klucel (hydroxypropylcellulose) (HPC)
[7] = dose: 100.0 mg/kg/injection, schedule: Q04DX003 (ip), vehicle: Klucel (hydroxypropylcellulose) (HPC)
[8] = dose: 200.0 mg/kg/injection, schedule: Q01DX009 (ip), vehicle: Klucel (hydroxypropylcellulose) (HPC)
[9] = dose: 200.0 mg/kg/injection, schedule: Q04DX003 (ip), vehicle: Klucel (hydroxypropylcellulose) (HPC)
[10] = dose: 400.0 mg/kg/injection, schedule: Q04DX003 (ip), vehicle: Klucel (hydroxypropylcellulose) (HPC)
[11] = dose: 100.0 mg/kg/injection, schedule: Q01DX009 (ip), vehicle: saline sonified
[12] = dose: 200.0 mg/kg/injection, schedule: Q01DX009 (ip), vehicle: saline sonified
[13] = dose: 400.0 mg/kg/injection, schedule: Q01DX009 (ip), vehicle: saline sonified
[14] = dose: 400.0 mg/kg/injection, schedule: Q04DX003 (ip), vehicle: saline with Tween-80
[15] = dose: 200.0 mg/kg/injection, schedule: Q01DX009 (ip), vehicle: saline
[16] = dose: 400.0 mg/kg/injection, schedule: Q01DX009 (ip), vehicle: saline

Measured: T/C

S=C(N/N=C\c1ccccc1)N/N=C/c1ccccc1
inactive: dose: 100.0 mg/kg/injection, schedule: Q04DX002 (ip), vehicle: gum acacia 93 % of control | dose: 200.0 mg/kg/injection, schedule: Q04DX002 (ip), vehicle: gum acacia 96 % of control | dose: 400.0 mg/kg/injection, schedule: Q04DX002 (ip), vehicle: gum acacia 93 % of control

CC1C(C(=O)c2ccc(-c3ccccc3)cc2)N1C1CCCCC1 (centres undefined)
inactive: [1] 93 % of control | [2] 86 % of control

CN(C)C(=O)N/N=C/c1ccc(Cl)cc1
inactive: dose: 100.0 mg/kg/injection, schedule: Q01DX009 (ip), vehicle: saline with Tween-80 95 % of control | dose: 200.0 mg/kg/injection, schedule: Q01DX009 (ip), vehicle: saline with Tween-80 92 % of control

COP(=O)(OC)OCc1cnc(SC)nc1N
inactive: dose: 25.0 mg/kg/injection, schedule: Q01DX009 (ip), vehicle: saline 100 % of control | dose: 25.0 mg/kg/injection, schedule: Q04DX003 (ip), vehicle: saline 100 % of control | [3] 102 % of control | dose: 50.0 mg/kg/injection, schedule: Q04DX003 (ip), vehicle: saline 105 % of control | [4] 98 % of control | [5] 101 % of control and 102 % of control

CC1(c2ccccc2)CCC(NN=C(N)N)=NC1 (centres undefined)
inactive: dose: 15.0 mg/kg/injection, schedule: Q01DX Z (ip), vehicle: methylcellulose (MC) 95 % of control | dose: 30.0 mg/kg/injection, schedule: Q01DX Z (oral), vehicle: methylcellulose (MC) 97 % of control | dose: 60.0 mg/kg/injection, schedule: Q01DX Z (ip), vehicle: methylcellulose (MC) 101 % of control | dose: 60.0 mg/kg/injection, schedule: Q01DX Z (oral), vehicle: methylcellulose (MC) 91 % of control | dose: 120.0 mg/kg/injection, schedule: Q01DX Z (ip), vehicle: methylcellulose (MC) 95 % of control | dose: 120.0 mg/kg/injection, schedule: Q01DX Z (oral), vehicle: methylcellulose (MC) 101 % of control | dose: 240.0 mg/kg/injection, schedule: Q01DX Z (ip), vehicle: methylcellulose (MC) 93 % of control | dose: 240.0 mg/kg/injection, schedule: Q01DX Z (oral), vehicle: methylcellulose (MC) 93 % of control | dose: 375.0 mg/kg/injection, schedule: Q01DX Z (oral), vehicle: methylcellulose (MC) 89 % of control | dose: 420.0 mg/kg/injection, schedule: Q01DX Z (ip), vehicle: methylcellulose (MC) 93 % of control | dose: 500.0 mg/kg/injection, schedule: Q01DX Z (oral), vehicle: methylcellulose (MC) 86 % of control | dose: 600.0 mg/kg/injection, schedule: Q01DX Z (ip), vehicle: methylcellulose (MC) 92 % of control | dose: 625.0 mg/kg/injection, schedule: Q01DX Z (oral), vehicle: methylcellulose (MC) 93 % of control

CC1NC(=O)NC1=O (centres undefined)
inactive: [6] 103 % of control | [7] 98 % of control | [8] 95 % of control | [9] 98 % of control | dose: 400.0 mg/kg/injection, schedule: Q01DX009 (ip), vehicle: Klucel (hydroxypropylcellulose) (HPC) 100 % of control | [10] 101 % of control

Cc1ccc(Cl)cc1NC(=O)Nc1ccccc1Cl
inactive: [6] 92 % of control | [7] 101 % of control | [8] 91 % of control | [9] 95 % of control | [10] 93 % of control

C=CCOc1c(Cl)c(Cl)c(Cl)c(Cl)c1Cl
inactive: [11] 96 % of control | [7] 96 % of control | [12] 91 % of control | [9] 96 % of control | [13] 97 % of control | [10] 96 % of control

CCOC(=O)c1c(N)sc2c1CCCC2
inactive: [11] 102 % of control | [1] 95 % of control | [12] 89 % of control | [2] 103 % of control | [13] 105 % of control | [14] 97 % of control

O=C1C(Br)=C(Br)C(=O)C1(Br)Br
inactive: [1] 87 % of control | [2] 96 % of control | [14] 94 % of control

CC(N)CCC(C)(C)O (centres undefined)
inactive: [3] 93 % of control | [4] 90 % of control

O=C(O)c1cc([N+](=O)[O-])ccc1Nc1ccccc1
inactive: [2] 95 % of control

CCCCCCCCCCCCCCN(C)C
inactive: dose: 25.0 mg/kg/injection, schedule: Q04DX003 (ip), vehicle: Klucel (hydroxypropylcellulose) (HPC) 107 % of control | dose: 50.0 mg/kg/injection, schedule: Q04DX003 (ip), vehicle: Klucel (hydroxypropylcellulose) (HPC) 108 % of control | [7] 94 % of control and 96 % of control

Cc1nn(C)c(C#N)c1[N+](=O)[O-]
inactive: [7] 98 % of control | [9] 100 % of control

O=C(O)CNCc1ccc(Cl)c(Cl)c1
inactive: dose: 75.0 mg/kg/injection, schedule: Q01DX009 (ip), vehicle: saline 100 % of control | [4] 97 % of control and 120 % of control | [5] 96 % of control | dose: 150.0 mg/kg/injection, schedule: Q01DX009 (ip), vehicle: saline 99 % of control | [15] 111 % of control | dose: 200.0 mg/kg/injection, schedule: Q04DX003 (ip), vehicle: saline 102 % of control | [16] 95 % of control | dose: 400.0 mg/kg/injection, schedule: Q04DX003 (ip), vehicle: saline 90 % of control

CC(=O)ON1C(=O)c2cccc3cccc(c23)C1=O
inactive: dose: 100.0 mg/kg/injection, schedule: Q04DX002 (ip), vehicle: saline with Tween-80 102 % of control | dose: 200.0 mg/kg/injection, schedule: Q04DX002 (ip), vehicle: saline with Tween-80 109 % of control

CSc1ccc(NC(=O)C(O)C(O)C(O)C(O)CO)cc1 (centres undefined)
inactive: [1] 89 % of control | [2] 100 % of control | [14] 95 % of control

Nc1nc2ncc(NCc3ccc(C(=O)NC(CCC(=O)O)C(=O)O)cc3)nc2c(=O)[nH]1 (centres undefined)
inactive: dose: 100.0 mg/kg/injection, schedule: Q01DX001 (ip), vehicle: saline 92 % of control | [4] 103 % of control | dose: 100.0 mg/kg/injection, schedule: Q04DX002 (ip), vehicle: saline 96 % of control and 100 % of control | dose: 200.0 mg/kg/injection, schedule: Q01DX001 (ip), vehicle: saline 91 % of control | [15] 100 % of control | dose: 200.0 mg/kg/injection, schedule: Q04DX002 (ip), vehicle: saline 100 % of control and 102 % of control | dose: 400.0 mg/kg/injection, schedule: Q01DX001 (ip), vehicle: saline 100 % of control | [16] 96 % of control | dose: 400.0 mg/kg/injection, schedule: Q04DX002 (ip), vehicle: saline 100 % of control and 105 % of control

Cc1ccc(Nc2nc(N)nc(N)c2C=O)cc1
inactive: dose: 50.0 mg/kg/injection, schedule: Q01DX001 (ip), vehicle: alcohol 89 % of control | dose: 100.0 mg/kg/injection, schedule: Q01DX001 (ip), vehicle: alcohol 86 % of control | dose: 200.0 mg/kg/injection, schedule: Q01DX001 (ip), vehicle: alcohol 102 % of control | dose: 400.0 mg/kg/injection, schedule: Q01DX001 (ip), vehicle: alcohol 86 % of control

COc1cc(C(=O)CCC(=O)O)c(OC)c(C)c1C
inactive: dose: 100.0 mg/kg/injection, schedule: Q01DX001 (ip), vehicle: other 93 % of control | dose: 200.0 mg/kg/injection, schedule: Q01DX001 (ip), vehicle: other 96 % of control | dose: 400.0 mg/kg/injection, schedule: Q01DX001 (ip), vehicle: other 91 % of control
